Laboratory results as given in article PMC12406192, “Sustainable Joullié–Ugi and Continuous Flow Implementation Led to Novel Captopril-Inspired Broad-Spectrum Metallo-β-Lactamase Inhibitors” (Journal of Medicinal Chemistry, 2025).
In brackets after ≈: the same amount, converted by molar mass. Several values for one entry are separate records, joined by “and”; a condition that tells them apart may be missing. Equal values may be shown once. Entries after “also recorded” stand apart in the source; their conditions may differ. Marks after values point to notes of the source that are not given here.

Columns and labels:
[1] = tested on: E. coli SI-G001 (bla NDM‑4 +); format: cell-based; settings: compound at 32 μg/mL; median of three experiments
Description: (§1) In vitro antimicrobial susceptibility testing was performed according to established standards. […] The strains used in the study were described elsewhere.

[2] = tested on: E. coli SI–N003 (bla NDM‑7 +); format: cell-based; settings: compound at 32 μg/mL; median of three experiments
Description: as §1

[3] = tested on: E. coli SI-M001 (bla NDM‑1 +); experiment: Imipenem MIC, broth microdilution, with fixed concentration of compound; format: cell-based; settings: for imipenem MIC, E. coli SI-M001 (bla NDM‑1 +): compound at 32 μg/mL, median of three experiments
Description: (§2) In vitro antimicrobial susceptibility testing was performed according to established standards. […]. The strains used in the study were described elsewhere.

[4] = tested on: K. pneumoniae T2301 (bla NDM‑1 +); experiment: as above; format: cell-based; settings: for imipenem MIC, K. pneumoniae T2301 (bla NDM‑1 +): compound at 128 μg/mL, median of three experiments
Description: as §2

VIM-2 [5] = biological target: T1, VIM-2 (Escherichia coli, UniProt Q5U7L7); experiment: biochemical; settings: for K, VIM-2 / k –2, VIM-2: from dependence of k inact on inhibitor concentration; for Kd: time-dependent inhibitors, measured at steady state, listed in Table 2 as Ki with footnote 'Measured as K d'
T1 construct: made in house; host or cells: E. coli

NDM-1 [6] = biological target: T2, NDM-1 (Klebsiella pneumoniae, UniProt C7C422); experiment: Kinetic fluorescence-based in vitro assay with fluorocillin substrate (IC50); format: biochemical; settings: 30 min preincubation
T2 construct: made in house; host or cells: E. coli
T2 sequence (C7C422 29-270 limits assumed): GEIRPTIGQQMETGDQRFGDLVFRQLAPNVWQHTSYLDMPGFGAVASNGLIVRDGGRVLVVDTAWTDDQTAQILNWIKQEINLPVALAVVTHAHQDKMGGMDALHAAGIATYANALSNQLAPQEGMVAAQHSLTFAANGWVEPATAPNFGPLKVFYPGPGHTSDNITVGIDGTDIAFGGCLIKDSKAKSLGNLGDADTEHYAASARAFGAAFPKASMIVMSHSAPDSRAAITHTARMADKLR
Description: (§3) IC50 values were determined in a kinetic fluorescence-based in vitro assay as described previously. All compounds were preincubated with the recombinant protein for 30 min before addition of the fluorogenic substrate fluorocillin. , The inhibitory activity was also determined (expressed as the percentage of inhibition in the presence of 50 μM compound) using a spectrophotometric assay in which the hydrolysis of imipenem (the reporter substrate) was monitored (see Section for details).
(§4) The inhibitory activity of the compounds was determined using enzyme assays with recombinant NDM-1, VIM-1, VIM-2, IMP-1, and IMP-7. These enzymes were produced in E. coli and purified as previously described. , The fluorogenic substrate fluorocillin was synthesized according to the procedure described by Rukavishnikov et al. The assays were performed in 96-well format using black polystyrene plates (Corning, Corning, NY) at room temperature, and the measurements were carried out on the Tecan spectrophotometer Infinite F200 PRO (Tecan, Männedorf, Switzerland). The protein stock solutions were diluted in assay buffer (HEPES 50 mM, pH 7.5 containing 0.01%Triton X-100, buffer HX) to reach final concentrations of VIM-1–4 nM, IMP-7–0.1 nM; NDM-1–3 nM. Subsequently, 89 μL of the protein solution was mixed with 1 μL of the inhibitor diluted in DMSO (final DMSO concentration 1% at final assay volume of 100 μL) and incubated for 30 min. […] Negative controls were measured in the absence of enzyme (89 μL of assay buffer), whereas the positive controls were measured in the presence of enzyme and in the absence of inhibitors (1 μL of DMSO). Each measurement was performed in triplicate in three independent experiments. IC50 values were calculated using data obtained from measurements with at least eight different inhibitor concentrations, applying a sigmoidal dose–response (variable slope with four parameters) equation using GraphPad Prism 5 (GraphPad Software, La Jolla, CA) software. […] All assays were performed in at least in triplicate.

IMP-7 = IMP-7 (Pseudomonas aeruginosa, UniProt Q93AU3); experiment: as above; format: biochemical; settings: 30 min preincubation
IMP-7, sequence (Q93AU3 entry or part of it): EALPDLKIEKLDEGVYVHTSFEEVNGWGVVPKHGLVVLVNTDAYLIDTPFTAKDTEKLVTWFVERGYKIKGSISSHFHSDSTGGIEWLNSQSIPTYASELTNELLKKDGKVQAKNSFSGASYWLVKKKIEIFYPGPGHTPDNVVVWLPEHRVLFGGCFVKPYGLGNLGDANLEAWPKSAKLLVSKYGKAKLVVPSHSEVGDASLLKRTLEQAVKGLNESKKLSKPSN
Description: as §3, §4

VIM-1 = biological target: T3, VIM-1 (Pseudomonas aeruginosa, UniProt A0A0F7KYQ8); experiment: as above; format: biochemical
T3 construct: made in house; host or cells: E. coli
Description: as §3, §4

IMP-1 = biological target: T4, IMP-1 (Serratia marcescens, UniProt P52699); experiment: biochemical; settings: read-out: percentage of inhibition IMP-1
T4 construct: made in house; host or cells: E. coli
T4 sequence (P52699 19-246, looked up, species assumed): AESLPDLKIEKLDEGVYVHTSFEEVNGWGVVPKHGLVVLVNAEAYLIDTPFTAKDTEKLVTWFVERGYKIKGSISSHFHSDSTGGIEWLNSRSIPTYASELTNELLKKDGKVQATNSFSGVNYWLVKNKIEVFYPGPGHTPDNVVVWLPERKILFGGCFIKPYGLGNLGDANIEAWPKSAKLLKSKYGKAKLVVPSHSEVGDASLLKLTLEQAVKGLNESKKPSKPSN
Description: as §3, §4

VIM-2 [7] = biological target: T1, VIM-2; experiment: biochemical; settings: read-out: percentage of inhibition VIM-2
Description: as §3, §4

[8] = tested on: VIM-1 expressing K. pneumoniae (T2216); experiment: Growth inhibition assay (OD600 growth curves); format: cell-based
Description: (§5) 4 Growth inhibition assay. […] Purple = growth control; red = 6d; blue = imipenem; green = imipenem plus 6d.
(§6) A computerized incubator (Tecan Infinite M200 pro, Crailsheim, Germany) was used to obtain the growth curves over a time course. Optical density (OD600) was measured for evaluating bacterial (i.e., K. pneumoniae NDM-1, P. aeruginosa IMP-1, K. pneumoniae VIM-1) density in suspension. Prior to each experiment, bacteria were cultured to the exponential phase (OD600 = 0.6–0.8) in cation-adjusted Mueller Hinton broth (Becton Dickinson, Heidelberg, Germany). 5 μL of diluted bacterial suspension and 100 μL of cation-adjusted Mueller Hinton broth either with or without imipenem (Arcos Organics, Schwerte, Germany) and/or the MBL inhibitor 6d were added into wells of a 96-well plate to give a final bacterial inoculum of approximately 5 × 10^5 CFU/mL. The temperature was adjusted to 37 °C. A permanent shaking speed of 450 rpm was used and was only interrupted before OD600 measurement. The optical densities of samples were recorded online every 10 min for 24 h.

[9] = tested on: NDM-1 expressing K. pneumoniae (T2301); experiment: Growth inhibition assay (OD600 growth curves); format: cell-based
Description: as §5, §6

[10] = tested on: IMP-1 expressing P. aeruginosa (T2325); experiment: Growth inhibition assay (OD600 growth curves); format: cell-based
Description: as §5, §6

[11] = biological target: T5, human angiotensin-converting enzyme 1 (ACE-1) (Homo sapiens, UniProt P12821); experiment: ACE Activity Assay Kit, fluorogenic substrate; format: biochemical
T5 construct: purchased Sigma-Aldrich CS0002
T5 sequence (P12821 30-1306): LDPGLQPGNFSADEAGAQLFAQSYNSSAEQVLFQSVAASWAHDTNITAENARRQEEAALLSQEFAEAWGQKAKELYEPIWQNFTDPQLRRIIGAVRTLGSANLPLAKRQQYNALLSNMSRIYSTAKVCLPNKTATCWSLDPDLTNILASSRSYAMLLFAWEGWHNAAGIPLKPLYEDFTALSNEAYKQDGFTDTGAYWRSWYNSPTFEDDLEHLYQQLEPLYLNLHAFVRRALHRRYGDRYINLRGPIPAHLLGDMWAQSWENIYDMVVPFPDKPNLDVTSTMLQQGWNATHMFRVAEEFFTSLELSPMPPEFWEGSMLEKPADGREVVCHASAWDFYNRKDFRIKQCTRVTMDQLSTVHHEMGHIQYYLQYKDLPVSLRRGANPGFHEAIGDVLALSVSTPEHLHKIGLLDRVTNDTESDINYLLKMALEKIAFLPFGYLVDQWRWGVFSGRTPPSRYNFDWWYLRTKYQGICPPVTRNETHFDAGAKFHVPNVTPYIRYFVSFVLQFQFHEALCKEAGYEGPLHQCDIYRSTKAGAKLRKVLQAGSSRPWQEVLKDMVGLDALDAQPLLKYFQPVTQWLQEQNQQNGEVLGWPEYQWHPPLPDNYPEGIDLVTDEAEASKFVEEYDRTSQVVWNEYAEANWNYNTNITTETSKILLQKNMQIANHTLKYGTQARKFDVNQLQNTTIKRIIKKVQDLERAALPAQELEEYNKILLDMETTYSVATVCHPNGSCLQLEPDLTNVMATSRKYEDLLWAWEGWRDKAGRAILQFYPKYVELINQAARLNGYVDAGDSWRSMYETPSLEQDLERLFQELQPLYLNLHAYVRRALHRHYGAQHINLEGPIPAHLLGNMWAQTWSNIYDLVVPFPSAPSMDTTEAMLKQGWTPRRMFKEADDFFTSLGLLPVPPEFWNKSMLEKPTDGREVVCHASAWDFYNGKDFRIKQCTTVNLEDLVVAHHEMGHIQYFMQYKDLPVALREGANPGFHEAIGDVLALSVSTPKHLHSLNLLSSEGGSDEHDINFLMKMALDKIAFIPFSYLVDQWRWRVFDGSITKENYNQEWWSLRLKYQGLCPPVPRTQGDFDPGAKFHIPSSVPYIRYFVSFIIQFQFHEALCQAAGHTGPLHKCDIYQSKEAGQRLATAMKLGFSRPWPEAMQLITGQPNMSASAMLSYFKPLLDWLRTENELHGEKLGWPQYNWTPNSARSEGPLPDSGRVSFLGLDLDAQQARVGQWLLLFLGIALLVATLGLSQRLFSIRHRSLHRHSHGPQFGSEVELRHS
Description: To assess the selectivity of the compounds, their inhibitory activity on human angiotensin-converting enzyme 1 (ACE-1) was performed using the ACE Activity Assay Kit (Sigma-Aldrich cat. No. CS0002). […] Captopril (racemic mixture, D- and L-stereoisomers) was used as control in these experiments.

[12] = tested on: K. pneumoniae T2216 (bla VIM‑1 +); experiment: Imipenem MIC, broth microdilution, with fixed concentration of compound; format: cell-based; settings: for imipenem MIC, K. pneumoniae T2216 (bla VIM‑1 +): compound at 128 μg/mL, median of three experiments
Description: as §1

[13] = tested on: K. pneumoniae 7023 (bla VIM‑1 +); experiment: as above; format: cell-based; settings: for imipenem MIC, K. pneumoniae 7023 (bla VIM‑1 +): compound at 32 μg/mL, median of three experiments
Description: as §1

[14] = tested on: P. aeruginosa T2325 (bla IMP‑1 +); experiment: as above; format: cell-based; settings: for imipenem MIC, P. aeruginosa T2325 (bla IMP‑1 +): compound at 128 μg/mL, median of three experiments
Description: as §1

[15] = tested on: K. pneumoniae VA-416/02 (bla VIM‑4 +); experiment: as above; format: cell-based; settings: for imipenem MIC, K. pneumoniae VA-416/02 (bla VIM‑4 +): compound at 32 μg/mL, median of three experiments
Description: as §1

[16] = tested on: A. baumannii AC-54/97 (bla IMP‑2 +); experiment: as above; format: cell-based; settings: for imipenem MIC, A. baumannii AC-54/97 (bla IMP‑2 +): compound at 32 μg/mL, median of three experiments
Description: as §1

[17] = tested on: S. marcescens SI-1591 (bla VIM‑2 +); experiment: microbe, parasite or virus in culture; format: cell-based; settings: for imipenem MIC, S. marcescens SI-1591 (bla VIM‑2 +): compound at 32 μg/mL, median of three experiments
Description: as §1

NDM-1 [18] = biological target: T2, NDM-1; experiment: Spectrophotometric direct competition assay, imipenem hydrolysis (reporter substrate); format: biochemical; settings: for Ki: competitive model, imipenem reporter substrate, read-out: K i NDM-1; for inhibition at 50 µM: read-out: percentage of inhibition NDM-1
Description: as §3, §4

[19] = tested on: MBL-producing clinical isolates; experiment: Synergistic activity with imipenem on the whole panel of clinical isolates; format: cell-based
Description: as §2

[20] = 6d at 128 μg/mL plus imipenem at 0.5 × MIC, 24 h

Row | SMILES | imipenem MIC, E. coli SI-G001 (bla NDM‑4 +) [1] [µg/mL] | imipenem MIC, E. coli SI–N003 (bla NDM‑7 +) [2] [µg/mL] | imipenem MIC, E. coli SI-M001 (bla NDM‑1 +) [3] [µg/mL] | imipenem MIC, K. pneumoniae T2301 (bla NDM‑1 +) [4] | K, VIM-2 (VIM-2 [5]) [µM] | k –2, VIM-2 (VIM-2 [5]) | Kd (VIM-2 [5]) [µM] | IC50 (NDM-1 [6]) [µM] | IC50 (IMP-7) [µM] | IC50 (VIM-1) [µM] | inhibition at 50 µM (IMP-1) [%] | inhibition at 50 µM (VIM-2 [7]) [%] | imipenem MIC, K. pneumoniae T2216 (bla VIM‑1 +) [12] | imipenem MIC, K. pneumoniae 7023 (bla VIM‑1 +) [13] [µg/mL] | imipenem MIC, P. aeruginosa T2325 (bla IMP‑1 +) [14] | imipenem MIC, K. pneumoniae VA-416/02 (bla VIM‑4 +) [15] [µg/mL] | imipenem MIC, A. baumannii AC-54/97 (bla IMP‑2 +) [16] [µg/mL] | imipenem MIC, S. marcescens SI-1591 (bla VIM‑2 +) [17] [µg/mL] | Ki (NDM-1 [18]) [µM] | inhibition at 50 µM (NDM-1 [18]) [%] | other results
1 | CCC1(CC)c2ccccc2N(C(=O)[C@H](C)CS)[C@H]1C(N)=O [6d, (R)-3,3-Diethyl-1-((S)-3-mercapto-2-methylpropanoyl)indoline-2-carboxamide] | 32 | 64 | 32 | 16 ^c μg/mL | >30 | 5.0 × 10^–3 s^–1 | 0.08 ± 0.01 | 3.5 | 3.3 | 0.4 | 51 | 98 | 2 ^c μg/mL | 16 | 16 ^c μg/mL | 64 | 128 | 8 | 2.6 ± 0.1 | 90 | effect on the inhibitory potential of imipenem (growth curves) [8, 20]: further prolonged for several hours; intrinsic antibacterial activity (no activity up to) ([8]; inhibitor alone): > 128 µg/mL; effect on the inhibitory potential of imipenem (growth curves) [9, 20]: further prolonged for several hours; intrinsic antibacterial activity (no activity up to) ([9]; inhibitor alone): > 128 µg/mL; effect on the inhibitory potential of imipenem (growth curves) [10, 20]: further prolonged for several hours; intrinsic antibacterial activity (no activity up to) ([10]; inhibitor alone): > 128 µg/mL; inhibition at 50 µM ([11]; 50 μM inhibitor): < 5%; inhibitory activity on ACE-1 (in words) ([11]; tested at 50 μM): negligible activity; also recorded: completely inactive; fold reduction of the imipenem MIC, VIM-1-producing K. pneumoniae isolate ([13]; in combination with imipenem): 8 fold and 4 fold; fold reduction of the imipenem MIC, IMP-1-producing P. aeruginosa isolate ([14]; in combination with imipenem): 8 fold and 4 fold
2 | C[C@H](CS)C(=O)N1c2ccccc2C2(CCCCC2)[C@@H]1C(N)=O [6f, (R)-1′-((S)-3-Mercapto-2-methylpropanoyl)spiro[cyclohexane-1,3′-indoline]-2′-carboxamide] | 64 | 64 | 32 | – | >20 | 2.6 × 10^–3 s^–1 | 0.16 ± 0.01 | 4.8 | – | – | 38 | 92 | – | 64 | – | 128 | 128 | 16 | 2.1 ± 0.2 | 83 | potentiation of imipenem (change of imipenem MIC) on the panel, in words [19]: unable to reduce the imipenem MIC
3 | C[C@H](CS)C(=O)N1c2ccccc2C(C)(C)[C@@H]1C(=O)NCC(=O)O [7b, ((R)-1-((S)-3-Mercapto-2-methylpropanoyl)-3,3-dimethylindoline-2-carbonyl)glycine] | 64 | 64 | 64 | 8 ^c μg/mL | – | – | – | 8 | 8.6 | 7.4 | 13 | 58 | 4 ^c μg/mL | 128 | 32 ^c μg/mL | 128 | 128 | 16 | – | 74 | –
4 | C[C@@H](O)[C@H]1C(=O)N2C(C(=O)O)=C(SCCN=CN)C[C@H]12 [imipenem, reference compound] | – | – | – | – | – | – | – | – | – | – | – | – | – | – | – | – | – | – | – | – | MIC ([3]; Escherichia coli, imipenem alone (compound: None)): 64 µg/mL (≈ 214 µM); MIC ([4]; Klebsiella pneumoniae, imipenem alone (compound: None)): 16 µg/mL (≈ 53.4 µM); MIC ([12]; Klebsiella pneumoniae, read-out: imipenem MIC, K. pneumoniae T2216 (bla VIM‑1 +)): 4 µg/mL (≈ 13.4 µM); MIC ([13]; Klebsiella pneumoniae, read-out: imipenem MIC, K. pneumoniae 7023 (bla VIM‑1 +)): 128 µg/mL (≈ 428 µM); MIC ([14]; Pseudomonas aeruginosa, read-out: imipenem MIC, P. aeruginosa T2325 (bla IMP‑1 +)): 64 µg/mL (≈ 214 µM); MIC ([15]; Klebsiella pneumoniae, read-out: imipenem MIC, K. pneumoniae VA-416/02 (bla VIM‑4 +)): 128 µg/mL (≈ 428 µM); MIC ([16]; Acinetobacter baumannii, read-out: imipenem MIC, A. baumannii AC-54/97 (bla IMP‑2 +)): 128 µg/mL (≈ 428 µM); MIC ([17]; Serratia marcescens, read-out: imipenem MIC, S. marcescens SI-1591 (bla VIM‑2 +)): 16 µg/mL (≈ 53.4 µM)
